For series [1], the system named is human cartilage explants. Put plainly: Human cartilage explant assay (IL-1 induced nitrite production). Format: cell-based. Particulars: inhibition of nitrite production, IL-1 stimulated explants. From the text:
Bone pieces are rinsed twice with Dulbecco's Phosphate Buffered Saline (GibcoBRL) and once with Dulbecco's Modified Eagles Medium (GibcoBRL) and placed into a petri dish with phenol red free Minimum Essential Medium (MEM) (GibcoBRL). […] The culture media was either a custom modification of Minimum Essential Medium(Eagle) with Earle's salts (GibcoBRL) prepared without L-Arginine, without L-Glutamine and without phenol red or a custom modification of serumless Neuman and Tytell (GibcoBRL) medium prepared without L-arginine, without insulin, without ascorbic acid, without L-glutamine and without phenol red. Both are supplemented before use with 100 μM L-Arginine (Sigma), 2 mM L-glutamine, 1× HL-1 supplement (BioWhittaker), […] ascorbic acid (Sigma) and 150 pg/ml recombinant human IL-1[…] (RD Systems) to induce nitric oxide synthase. Compounds are then added in 10 μL aliquots and the explants incubated at 37° C. with 5% CO2 for 18-24 hr. The day old supernatant is then discarded and replaced with fresh culture media containing recombinant human IL-1β and compound and incubated for another 20-24 hr. […] All samples are done in quadruplicate. Unstimulated controls are cultured in media in the absence of recombinant human IL-1{tilde over (□)} IC50 values (Table I) are determined from plotting the percent inhibition of nitrite production at 6 different concentrations of inhibitor.

Series [2] concerns inducible nitric oxide synthase activity in vivo. Put plainly: In vivo assay: LPS-induced plasma nitrite/nitrate in endotoxin-treated rats. Further details: species or system rat. Conditions: oral administration, plasma nitrite/nitrate 5 hr post-treatment; for ED50: Rattus norvegicus. The source says: Plasma nitrite/nitrate levels can be determined 5 hr post-treatment.
The test system of series [3] is recurrent GBM. Conditions: recurrent GBM after resection and radiotherapy; cited from earlier work.
Series [4] has as its system C6 cells overexpressing iNOS. Particulars: concentration-dependent; cited from earlier work.

As a reminder, the IC50 is the concentration that gives 50% inhibition. Low values mean higher potency, high ones lower potency. For orientation: ED50 means the dose at which the effect has come halfway, by size or by number of responders. A higher ED50 goes with a need for a large dose. As a reminder, the melting point is the temperature, or range, at which the solid turns liquid.

Where a name gives a salt, the structure may show the parent alone.

For `COC[C@](N)(CSCCNC(C)=N)C(=O)O` [Example J, 2-[[[2-[(1-Iminoethyl)amino]ethyl]thiolmethyl]-O-methyl-D-serine, dihydrochloride], the IC50 in series [1] amounted to 8200 nM. This lies in the single-digit micromolar range.
`CC(=N)NC/C(F)=C\CC[C@](C)(N)C(=O)O.Cl.Cl` [Example HH, (2S,5E)-2-amino-2-methyl-6-fluoro-7-[(1-iminoethyl)amino]-5-heptenoic acid, dihydrochloride] yielded a 50% effective dose (ED50) in series [2] of 0.4 mg/kg. In series [1] (Homo sapiens), this compound came in with an IC50 of 400 nM.
With `O=NN(CCCl)C(=O)NCCCl` [BCNU, 1,3-bis(β-chloroethyl)-1-nitrosourea], in series [3], the response rate result is recorded as “about 30%”.
`CC(=N)NC/C(F)=C\CC[C@H](N)C(=O)Nc1nnn[nH]1` [Example H, (2S,5E)-2-amino-6-fluoro-7-[(1-iminoethyl)amino]-N-(1H-tetrazol-5-yl) 5-heptenamide, dihydrochloride] had an ED50 in series [2] of less than 0.3 mg/kg.
Turning to `Cl.N=C1CCCC[C@H](CCCC[C@@H](N)C(=O)O)N1.O.O.O` [Example V, (αR,2S)-α-aminohexahydro-7-imino-1H-azepine-2-hexanoic acid, trihydrate hydrochloride], in series [2], the ED50 was less than 3 mg/kg. In series [1] (Homo sapiens), the concentration for half-maximal inhibition (IC50) was less than 10000 nM.
`N=C1CCCC[C@H](CCCC[C@H](N)C(=O)O)N1` [Example X, (αS,2S)-α-aminohexahydro-7-imino-1H-azepine-2-hexanoic acid, trihydrate hydrochloride] gave an IC50 in series [1] of less than 10000 nM.
For the compound `CC(=N)NCC(F)=CCC[C@H](N)C(=O)O` (mixture of isomers) [Example B, (2S,5E/Z)-2-amino-6-fluoro-7-[(1-iminoethyl)amino]-5-heptenoic acid, dihydrochloride], the IC50 in series [1] (Homo sapiens) is 200 nM. In other words, the sub-micromolar range.
As for `O=NN(CCCl)C(=O)NC1CCCCC1` [CCNU, urea, N-(2-chloroethyl)-N′ cyclohexyl-N-nitroso-(9CI)], in series [3], the response rate result is recorded as “about 30%”.
As for `COC(=O)[C@@H](N)CCCNC(=N)N[N+](=O)[O-]` [L-NAME], in series [4], the BCNU toxicity entry is reported as “restoration of BCNU toxicity” and the nitrite levels entry is on record as “reduced the nitrite levels”.
The compound `CC(=N)NC/C(F)=C/CC[C@H](N)C(=O)O` [Example D, (2S,5Z)-2-amino-6-fluoro-7-[(1-iminoethyl)amino]-5-heptenoic acid, trihydrochloride, dihydrate] yielded an ED50 in series [2] greater than 10 mg/kg. Also, it took 2500 nM to reach half-maximal inhibition in series [1] (Homo sapiens) (IC50).
In series [1] (Homo sapiens), `N=C1CCCC[C@H](CCCC[C@H](N)C(=O)O)N1` [Example Z, (αS,2S)-α-aminohexahydro-7-imino-1H-azepine-2-hexanoic acid, trihydrate hydrochloride] showed an IC50 of less than 10000 nM.
`CC(=N)NC/C=C\CC[C@](C)(N)C(=O)O` [Example LL, (2S,5Z)-7-acetimidoylamino-2-amino-2-methyl-hept-5-enoic acid]: the 50% effect level in series [2] (ED50) was put at a dose of 0.3 mg/kg. The same compound displayed an IC50 in series [1] (Homo sapiens) of 800 nM.
`CC(=N)NC/C(F)=C\CC[C@H](N)C(=O)O` [Example A, (2S,5E)-2-amino-6-fluoro-7-[(1-iminoethyl)amino]-5-heptenoic acid, dihydrochloride] yielded an ED50 in series [2] of less than 0.1 mg/kg. For the same compound, in series [2] (dihydrochloride), the “ED50 in endotoxin-treated rats” value was less than 0.1 mg/kg. The same compound returned an IC50 in series [1] (Homo sapiens) of 100 nM.
As to `CC(=NO)NC/C(F)=C\CC[C@H](N)C(=O)O` [Example G, (2S,5E)-2-amino-6-fluoro-7-[(1-hydroximinoethyl)amino]-5-heptenoic acid], the melting point is 198 to 200 °C. The compound also had a 50% effective dose (ED50) in series [2] of less than 0.1 mg/kg.

Source of the values: patent US20050203082A1, “Combination therapy with inhibitors of inducible nitric oxide synthase and alkylating agents” (priority 2003, published 2005).
